Common to all, as to assay type: in vivo, corn (Zea mays)
In test [1] the test system is Nontransgenic corn plants (H99). Briefly: Kanamycin, paromomycin and the combination with and without surfactant. The note with it: 20 μL, 5 plants, seven days. How it is done:
Nontransgenic corn plants (H99) were tested at 24 days old using 5 plants for each treatment. Plants were treated with and without surfactant at two different concentrations of paromomycin, kanamycin, and the combination of paromomycin and kanamycin._On the day of application, an antibiotic solutions consisting of 750 mg/L or 1000 mg/L paromomycin and 0.06% (v/v) SILWET L-77 was prepared, as was a control solution consisting of 750 mg/L or 1000 mg/L of paromomycin in water. […] Antibiotic solution (20 μL) was applied to the whorl of each corn plant, from which any standing water has been removed beforehand.

The test system of test [2] is Nontransgenic 3-week-old corn seedlings. Put plainly: Titration of selective agents with cotton rolls tied to the whorl. How it is done: Nontransgenic 3-week-old corn seedlings were assayed in order to determine the quantity of selective agent necessary in order to obtain a response. […] Cotton rolls were saturated with solutions consisting of 0.03% SILWET L-77 and various concentrations of each of these three antibiotics individually and tied to the whorl of plants to be tested.
The concentrations of genenticin tested were 25 mg/mL, 50 mg/mL, 75 mg/mL, and 100 mg/mL.

Test [3] deals with corn plants containing NPTII protein. Put plainly: Paromomycin as selective agent to identify corn plants containing NPTII protein (predicted). The conditions noted are these: 10 μL of 1000 mg/L paromomycin and 0.06% (v/v) SILWET L-77; five days. The source says:
Samples of the plants may be taken and analyzed by ELISA for the presence or absence of NPTII protein prior to the start of the field test. […] Negative controls (i.e., nontransgenic plants) may be divided into two equal groups. […] The treated plants may then be scored for the presence or absence of necrosis five days after application of the antibiotic/[…]-77 solution or control solution. […] The field assay scores may then be correlated with the […] results.

[4] abbreviates: 750 mg/L (each antibiotic), with 0.06% SILWET L-77.
Setting [5] is: 750 mg/L (each antibiotic), without SILWET L-77.
The mark [6] stands for this setting: 1000 mg/L (each antibiotic), with 0.06% SILWET L-77.
[7] abbreviates: 1000 mg/L (each antibiotic), without SILWET L-77.

In the case of `NC[C@H]1O[C@H](O[C@H]2[C@H](O)[C@@H](O[C@H]3O[C@H](CO)[C@@H](O)[C@H](N)[C@H]3O)[C@H](N)C[C@@H]2N)[C@H](O)[C@@H](O)[C@@H]1O` [kanamycin], the “number of plants with mild symptoms” value in test [1] (setting [4]) amounted to 0; in test [1] (setting [5]), 1; in test [1] (setting [6]) it was 2; in test [1] (setting [7]) it was 1. For the same compound, the “number of plants with no symptoms” value in test [1] (setting [4]) stood at 0; in test [1] (setting [5]), 4; in test [1] (setting [6]), 0; in test [1] (setting [7]), 4. Besides, the “number of plants with severe necrosis” value was found to be 5 in test [1] (setting [4]), 0 in test [1] (setting [5]), 3 in test [1] (setting [6]) and 0 in test [1] (setting [7]).
As for `NC[C@@H]1O[C@H](O[C@H]2[C@@H](O)[C@H](O[C@@H]3[C@@H](O)[C@H](N)C[C@H](N)[C@H]3O[C@H]3O[C@H](CO)[C@@H](O)[C@H](O)[C@H]3N)O[C@@H]2CO)[C@H](N)[C@@H](O)[C@@H]1O` [paromomycin], the “bleaching and necrosis in treated plant leaves” value in test [2] (300 mg/L, 500 mg/L and 750 mg/L in 0.03% SILWET L-77, two days) was “Slight to moderate necrosis and some bleaching”; in test [2] (1000 mg/L in 0.03% SILWET L-77, two days), “extreme necrosis and some bleaching”. Further, the “necrosis relative to similarly treated leaves of corn plants that do not contain NPTII protein” value in test [3] is “reduced or no necrosis”. For the same compound, the “number of plants with mild symptoms” value in test [1] (setting [4]), in test [1] (setting [5]), in test [1] (setting [6]) and in test [1] (setting [7]) was 0 throughout. The “number of plants with no symptoms” value came to 2 in test [1] (setting [4]), 5 in test [1] (setting [5]), 1 in test [1] (setting [6]) and 5 in test [1] (setting [7]). Moreover, the “number of plants with severe necrosis” value in test [1] (setting [4]) is recorded as 3; in test [1] (setting [5]) it was 0; in test [1] (setting [6]), 4; in test [1] (setting [7]) it was 0.

These data come from patent US20030017599A1, “Assay for the detection of selectable marker expression in plants” (priority 1999, published 2003).
